Laboratory results reported in US20170281676A1, “HIV-CURE” (Lupus Foundation of Gainesville, priority 2016, published 2017).
Where two headings read alike, the source gives them in different places.

Tests used:
[1] = tested on: HIV; conditions: by denaturing their molecules; cited from earlier work
[2] = most animal species; cited from earlier work
[3] = tested on: Feline Immunodeficiency Virus (FIV); conditions: by denaturing their molecules; cited from earlier work
[4] = in vivo; cited from earlier work
[5] = tested on: peripheral blood lymphocytes; conditions: concentrations 300-790 mg/dl; cited from earlier work
[6] = tested on: bloodstream catheter-related infections; conditions: injected preventively in central venous catheters; cited from earlier work
[7] = tested on: HIV virus; conditions: cited from earlier work
[8] = tested on: HIV; conditions: HIV-positive person, 2 years after discharge; earlier viral load 60,000 copies per ml; never on antiretroviral medication
Description: (§1) A person was brought to the emergency room by ambulance. The inventor was called to intubate for respiratory support. […] They were intubated with propofol and admitted to ICU. […] During the ICU stay, they were maintained in coma with propofol infusions and some opioid analgesics and muscle paralyzers, intubated and mechanically ventilated. Fluids given were mostly Ringer's lactate and dextrose 5% in water. Due to lack of history, the ICU staff assumed they were a chronic alcoholic. […] So, they treated the patient with ethanol infusion, trying to decrease the level slowly over days.

[9] = human, in vivo
Description: as §1

[10] = in vivo; cited from earlier work; remark: listed apart in the source
[11] = in vivo; cited from earlier work; remark: listed apart in the source
[12] = tested on: HIV virus; conditions: surfaces, 70% v/v ethanol, cited from earlier work
[13] = human, in vivo; remark: listed apart in the source
[14] = in vivo; cited from earlier work; remark: listed apart in the source
[15] = tested on: HIV-1; conditions: cited from earlier work
[16] = tested on: human macrophage hybridoma cell line and primary monocytes; conditions: ethanol equivalent to 115, 345 and 690 mg/dl, 16 hours, then infected with HIV-1; cited from earlier work
[17] = tested on: primary human brain microvascular endothelial cells; conditions: concentrations equivalent to 79 mg/dl and 237 mg/dl; cited from earlier work
[18] = monkeys, 100 ppm for 2 years; cited from earlier work
[19] = mice, cited from earlier work
[20] = water, alcohol, and organic solvents; cited from earlier work
[21] = humans exposed in workplace; cited from earlier work

## CC(C)O [isopropanol]
[1]
  inactivation of HIV in vitro: inactivate
[2]
  median lethal dose: 4 g/kg
[3]
  inactivation of FIV in vitro: inactivate
[4]
  serum elimination half-life: 2.5 to 8 h

## OCCO [ethylene glycol]
[1]
  inactivation of HIV in vitro: inactivate
[3]
  inactivation of FIV in vitro: inactivate

## CCO [ethanol]
[1]
  inactivation of HIV in vitro: inactivate
[5]
  HIV DNA in peripheral blood lymphocytes and their proliferation: increase
[6]
  risk of bloodstream catheter-related infections: decrease the risk
[7]; human albumin and plasma products at 18,000 mg/dl and higher
  damage to the product: no damage to the product was caused
[7]; human albumin and plasma products, and even higher
  concentration used for in vitro inactivation of HIV virus: ≥ 18,000 mg/dl
[8]
  HIV viral load: undetectable
[9]
  permanent organ damage: without causing any permanent organ damage
[3]
  inactivation of FIV in vitro: inactivate
[10]
  placental penetration: penetrates well the placenta
[11]
  factor between breath and blood concentrations: around 2300
  rise of serum concentration after loading dose: about 100 mg/dL
[12]; in some conditions, up to
  time of contact needed for the inactivation of HIV virus: up to 4 minutes
[12]
  time of contact needed for the inactivation of HIV virus: 2 min
[13]
  time to reach a level below 100 mg/dl: 16 to 20 h
[14]
  blood level at usual starting of a comatose state: 400 mg/dL
[15]; ethanol tested at 115, 345 and 690 mg/dl
  HIV-1 replication, another study: same results
[15]; human peripheral blood mononuclear cells, levels at the range of 400 mg/dl or less
  HIV-1 replication: increase the HIV-1 replication
[16]
  effects in the immunogenic tests of the cells: immunosuppressive effects
[17]
  apoptosis induced by HIV-1 proteins: strongly potentiate

## CO [methanol]
[1]
  inactivation of HIV in vitro: inactivate
[3]
  inactivation of FIV in vitro: inactivate

## C1CO1 [ethylene oxide]
[18]
  mortality: did not have increased mortality
[19]; 100 ppm for 2 years
  mortality: did not have increased mortality
[19]; exposure to 400 ppm for 14 days
  mortality: no death
[19]; higher levels like 800 ppm
  mortality: deadly in 4 hours
[20]
  solubility: dissolves easily
[21]
  mortality: no increase in mortality
